Results as given in article PMC6540285, “Evaluation of Protein Kinase Inhibitors with PLK4 Cross-Over Potential in a Pre-Clinical Model of Cancer” (International Journal of Molecular Sciences, 2019).
Read-outs that look alike come from different tables or passages of the source. Values belong to the molecule of their own block, whether it stands above or below them.

Assays:
PLK4 = target: T1, PLK4 (Homo sapiens, UniProt O00444); assay: LanthaScreen Eu Kinase Binding Assay, 10-point IC50; conditions: SelectScreen, 10-point titration
T1 sequence (O00444 1-970): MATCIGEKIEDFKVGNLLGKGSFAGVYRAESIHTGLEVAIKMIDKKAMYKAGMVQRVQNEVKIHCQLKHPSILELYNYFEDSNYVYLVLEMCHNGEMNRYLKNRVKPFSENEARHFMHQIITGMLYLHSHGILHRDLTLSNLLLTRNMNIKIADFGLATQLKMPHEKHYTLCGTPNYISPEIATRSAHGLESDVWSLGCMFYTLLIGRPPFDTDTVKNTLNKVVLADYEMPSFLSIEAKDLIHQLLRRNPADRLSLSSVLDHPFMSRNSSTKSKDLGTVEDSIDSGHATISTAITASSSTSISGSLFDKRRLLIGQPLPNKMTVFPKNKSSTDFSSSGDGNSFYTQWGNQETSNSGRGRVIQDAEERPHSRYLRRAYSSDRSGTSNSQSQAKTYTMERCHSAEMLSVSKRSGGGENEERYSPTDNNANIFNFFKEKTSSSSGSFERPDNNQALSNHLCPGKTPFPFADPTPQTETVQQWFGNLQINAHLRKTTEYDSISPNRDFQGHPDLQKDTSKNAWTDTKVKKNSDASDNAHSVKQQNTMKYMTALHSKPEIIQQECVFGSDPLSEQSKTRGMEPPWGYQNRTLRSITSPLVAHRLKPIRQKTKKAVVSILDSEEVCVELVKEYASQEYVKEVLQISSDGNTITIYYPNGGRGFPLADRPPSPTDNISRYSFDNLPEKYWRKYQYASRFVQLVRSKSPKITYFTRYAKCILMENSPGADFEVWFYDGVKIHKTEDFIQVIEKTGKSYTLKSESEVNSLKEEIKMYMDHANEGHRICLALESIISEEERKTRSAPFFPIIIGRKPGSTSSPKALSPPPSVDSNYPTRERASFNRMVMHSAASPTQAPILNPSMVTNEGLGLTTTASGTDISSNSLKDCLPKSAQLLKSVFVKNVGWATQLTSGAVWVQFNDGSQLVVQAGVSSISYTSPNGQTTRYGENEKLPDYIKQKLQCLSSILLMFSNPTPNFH
From the text: (§1) Curves were generated from the compound concentration and the corresponding percent (%) inhibition calculated for each concentration tested. For PLK4, we used the LanthaScreen Eu Kinase Binding Assay (Thermo Fisher Scientific, Carlsbad, CA, USA) that utilizes an Alexa Fluor conjugated “tracer” and an Eu-labeled anti-tag antibody to measure binding of a compound to the kinase target. For AURKs (AURKA, AURKB and AURKC) we used the Z’ LYTE Kinase Assay (Thermo Fisher Scientific, Carlsbad, CA, USA) that determines the differential sensitivity of phosphorylated and non-phosphorylated peptide substrates to proteolytic cleavage using a FRET-based readout.

BT-16 cells [1] = assay: PrestoBlue Cell Viability assay; format: cell-based
Method: (§2) Cell viability was assessed using the Presto Blue™ Cell Viability reagent (Thermo Fisher Scientific, Carlsbad, CA, USA) following the manufacturer’s instructions. Cells were plated in 96-well plates at the same densities described above for the proliferation assay. The fluorescence was measured after 24, 48, 72, and 96 h at concentrations ranging from 0.001 to 10 µM of the inhibitor. All assays were performed in triplicate.

MON cells [2] = assay: PrestoBlue Cell Viability assay; format: cell-based; conditions: read-out: PB: IC50 of the PrestoBlue Viability assay
Method: as §2

BT-12 cells [3] = assay: PrestoBlue Cell Viability assay; format: cell-based
Method: as §2

D283 cells [4] = assay: PrestoBlue Cell Viability assay; format: cell-based
Method: as §2

DAOY cells [5] = assay: PrestoBlue Cell Viability assay; format: cell-based; conditions: Homo sapiens, read-out: PB: IC50 of the PrestoBlue Viability assay
Method: as §2

BT-16 cells [6] = format: cell-based; conditions: BT-16, read-out: MTT: IC50 of the proliferation assay
BT-12 cells [7] = format: cell-based; conditions: Homo sapiens, BT-12, read-out: MTT: IC50 of the proliferation assay
D283 cells [8] = format: cell-based
MON cells [9] = assay: cells; conditions: read-out: MTT: IC50 of the proliferation assay
RT and MB cells [10] = assay: Cell cycle analysis (PI flow cytometry); format: cell-based; conditions: for polyploidy: cell lines tested, concentration not given
Method: Cell cycle analysis was performed by flow cytometry of cells stained with Propidium Iodide (PI) (Thermo Fisher Scientific, Carlsbad, CA, USA) according to manufacturer’s instructions. Cells treated with the top PLK4i candidates and 0.1% DMSO (control) were fixed in 80% ethanol overnight, stained with PI, and then subjected to flow cytometric analysis using a BD Fortessa instrument (BD Biosciences, San Jose, CA, USA). Data was analyzed using Modfit LT from Verity Software House (Topsham, ME, USA). All experiments were performed in triplicate.

AURKB = AURKB (Homo sapiens, UniProt Q96GD4); assay: Z' LYTE Kinase Assay, 10-point IC50; format: biochemical; conditions: SelectScreen, 10-point titration
Sequence of AURKB (Q96GD4 whole entry): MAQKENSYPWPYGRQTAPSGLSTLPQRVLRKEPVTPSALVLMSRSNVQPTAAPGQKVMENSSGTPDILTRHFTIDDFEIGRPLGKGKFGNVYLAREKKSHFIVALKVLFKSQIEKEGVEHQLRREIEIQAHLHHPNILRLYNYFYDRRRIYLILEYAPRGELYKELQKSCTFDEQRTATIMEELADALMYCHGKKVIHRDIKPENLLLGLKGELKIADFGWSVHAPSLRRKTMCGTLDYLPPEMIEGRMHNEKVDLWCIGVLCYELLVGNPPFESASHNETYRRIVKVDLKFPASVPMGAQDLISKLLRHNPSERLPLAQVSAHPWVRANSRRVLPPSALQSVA
From the text: as §1

AURKA = target: T2, AURKA (Homo sapiens, UniProt O14965); assay: Z' LYTE Kinase Assay, 10-point IC50; format: biochemical; conditions: SelectScreen, 10-point titration
T2 sequence (O14965 1-403): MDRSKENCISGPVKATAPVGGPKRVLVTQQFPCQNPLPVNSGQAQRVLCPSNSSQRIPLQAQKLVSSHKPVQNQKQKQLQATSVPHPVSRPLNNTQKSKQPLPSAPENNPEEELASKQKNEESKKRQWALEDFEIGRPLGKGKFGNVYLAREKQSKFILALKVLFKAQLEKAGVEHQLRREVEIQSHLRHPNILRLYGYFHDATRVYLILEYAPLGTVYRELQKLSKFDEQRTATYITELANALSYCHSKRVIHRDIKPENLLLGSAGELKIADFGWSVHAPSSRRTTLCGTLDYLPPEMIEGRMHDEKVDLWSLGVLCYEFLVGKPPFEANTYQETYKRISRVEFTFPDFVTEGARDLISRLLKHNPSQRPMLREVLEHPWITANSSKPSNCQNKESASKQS
From the text: as §1

AURKC = target: T3, AURKC (Homo sapiens, UniProt Q9UQB9); assay: Z' LYTE Kinase Assay, 10-point IC50; format: biochemical; conditions: SelectScreen, 10-point titration
T3 sequence (Q9UQB9 1-309): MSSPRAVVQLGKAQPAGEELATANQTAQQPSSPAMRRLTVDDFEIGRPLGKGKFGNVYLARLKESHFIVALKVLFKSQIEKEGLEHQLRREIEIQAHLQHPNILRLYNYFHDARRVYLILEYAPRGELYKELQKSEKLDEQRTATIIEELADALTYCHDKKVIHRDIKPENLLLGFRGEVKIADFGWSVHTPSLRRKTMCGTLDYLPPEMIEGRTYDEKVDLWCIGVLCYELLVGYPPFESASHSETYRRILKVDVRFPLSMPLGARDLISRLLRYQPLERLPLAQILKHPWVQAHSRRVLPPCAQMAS
From the text: as §1

DAOY cells [11] = format: cell-based; conditions: Homo sapiens, read-out: MTT: IC50 of the proliferation assay
RT and MB cells [12] = assay: Beta-galactosidase senescence assay; format: cell-based; conditions: all cell lines
Method: Senescence was evaluated using the Beta-galactosidase assay (Senescence Cells Histochemical Staining Kit CS0030 (Sigma, St Louis, MO, USA) and clonogenic recovery assay as previously described.

RT and MB cells [13] = assay: Clonogenic colony formation assay; format: cell-based; conditions: 50nM
Method: All cell lines were seeded at 200 cells per well in six-well plates and incubated overnight. After 24 h, the treatment medium was added and changed once a week. Cells were treated with 0.01, 0.05, 0.1, 0.2, 0.5, 1, 5, and 10 µM of PLK4i and 0.1% DMSO as control. After 14 days, the cells were washed twice with 1x PBS, fixed with formalin, and stained with Cresyl violet (ACROS Organics, Pittsburgh, PA, USA). Colonies were counted using the ImageJ software (www.imagej.nih.gov, accessed on April 21, 2017).

[14] = BT-16; read-out: PB: IC50 of the PrestoBlue Viability assay
[15] = Homo sapiens, BT-12; read-out: PB: IC50 of the PrestoBlue Viability assay
[16] = D283, read-out: PB: IC50 of the PrestoBlue Viability assay
[17] = D283, read-out: MTT: IC50 of the proliferation assay
[18] = BT-16, read-out: PB: IC50 of the PrestoBlue Viability assay
[19] = Homo sapiens, BT-12, read-out: PB: IC50 of the PrestoBlue Viability assay

SMILES: COc1c(Nc2cc(C)[nH]n2)nc(Sc2ccc(S(=O)(=O)Cc3cccc([N+](=O)[O-])c3F)cc2F)nc1N1CCCCC1 [centrinone B]
IC50 (PLK4): 8.69 nM | IC50 (BT-16 cells [1]; [14]): > 10000 nM | IC50 (MON cells [2]): > 10000 nM | IC50 (BT-12 cells [3]; [15]): 6320 nM | IC50 (D283 cells [4]; [16]): 1740 nM | IC50 (DAOY cells [5]): > 10000 nM | IC50 (BT-16 cells [6]): 5470 nM | IC50 (BT-12 cells [7]): 5190 nM | IC50 (D283 cells [8]; [17]): 1240 nM | IC50 (MON cells [9]): > 10000 nM | polyploidy (RT and MB cells [10]): did not induce polyploidy | IC50 (AURKB): 10000 nM | IC50 (AURKA): 623 nM | IC50 (AURKC): 5810 nM | IC50 (DAOY cells [11]): > 10000 nM

SMILES: COc1cc2c(cc1F)C(c1ccccc1Cl)=Nc1c(n[nH]c1C)N2 [R1530]
IC50 (PLK4): 7.06 nM | IC50 (BT-16 cells [1]; [14]): > 10000 nM | IC50 (MON cells [2]): 3750 nM | IC50 (BT-12 cells [3]; [15]): > 10000 nM | IC50 (D283 cells [4]; [16]): > 10000 nM | IC50 (DAOY cells [5]): 1850 nM | IC50 (BT-16 cells [6]): 3900 nM | IC50 (BT-12 cells [7]): > 10000 nM | IC50 (D283 cells [8]; [17]): > 10000 nM | IC50 (MON cells [9]): 3200 nM | IC50 (AURKB): 42.6 nM | IC50 (AURKA): 6.22 nM | IC50 (AURKC): 30.9 nM | IC50 (DAOY cells [11]): 829 nM

SMILES: COc1ccc2c(c1)/C(=C\c1ccc3c(/C=C/c4ccc(N5CCN(C)CC5)nc4)n[nH]c3c1)C(=O)N2 [CFI-400437]
IC50 (PLK4): 1.55 nM | IC50 (BT-16 cells [1]; [14]): > 10000 nM | IC50 (MON cells [2]): 640 nM | IC50 (BT-12 cells [3]; [15]): 604 nM | IC50 (D283 cells [4]; [16]): 6300 nM | IC50 (DAOY cells [5]): 768 nM | cell senescence (beta-galactosidase) (RT and MB cells [12]): induction of cell senescence | IC50 (BT-16 cells [6]): 1920 nM | IC50 (BT-12 cells [7]): 61.6 nM | IC50 (D283 cells [8]; [17]): > 10000 nM | IC50 (MON cells [9]): 722 nM | polyploidy (cell cycle analysis) (RT and MB cells [10]; 500 nM): induction of polyploidy | IC50 (AURKB): 13.1 nM | IC50 (AURKA): 37.2 nM | IC50 (AURKC): 4.88 nM | IC50 (DAOY cells [11]): 684 nM | colony formation (RT and MB cells [13]): complete inhibition of colony formation in all cell lines

SMILES: COc1c(Nc2cc(C)[nH]n2)nc(Sc2ccc(S(=O)(=O)Cc3cccc([N+](=O)[O-])c3F)cc2F)nc1N1CCOCC1 [centrinone]
IC50 (BT-16 cells [1]; [18]): 2220 nM | IC50 (MON cells [2]): 5000 nM | IC50 (BT-12 cells [3]; [19]): 3400 nM | IC50 (DAOY cells [5]): 4500 nM | cell senescence (beta-galactosidase) (RT and MB cells [12]): induction of cell senescence | polyploidy (cell cycle analysis) (RT and MB cells [10]; 1µM): no polyploidy | polyploidy (RT and MB cells [10]): did not induce polyploidy | IC50 (AURKB): 680 nM | IC50 (AURKA): 108 nM | IC50 (AURKC): 493 nM | colony formation (RT and MB cells [13]): complete inhibition of colony formation in all cell lines except the MB cell line DAOY and the RT cell line BT-16

SMILES: COc1ccc2c(c1)[C@]1(C[C@H]1c1ccc3c(/C=C/c4ccc(CN5C[C@@H](C)O[C@@H](C)C5)cc4)n[nH]c3c1)C(=O)N2 [CFI-400945, (1r,2s).2-(3-((e).4-(((cis).2,6-dimethylmorpholino)methyl)styryl). 1h.Indazol-6-yl)-5′-methoxyspiro[cyclopropane-1,3′-indolin]-2′-one]
IC50 (BT-16 cells [1]; [18]): 5830 nM | IC50 (MON cells [2]): 5130 nM | IC50 (BT-12 cells [3]; [19]): 8470 nM | IC50 (D283 cells [4]; [16]): 8400 nM | IC50 (DAOY cells [5]): 94 nM

IC50 (BT-16 cells [1]; [14]): > 10000 nM | IC50 (BT-12 cells [3]; [15]): > 10000 nM | IC50 (AURKC): 9.43 nM
SMILES: COc1cc(Nc2ncc3c(n2)-c2ccc(Cl)cc2C(c2c(F)cccc2OC)=NC3)ccc1C(=O)O [alisertib]
IC50 (MON cells [2]; MON): 213 nM | IC50 (D283 cells [4]; D283; read-out: PB: IC50 of the PrestoBlue Viability assay): 9130 nM | IC50 (DAOY cells [5]): 31 nM | IC50 (D283 cells [8]; D283; read-out: MTT: IC50 of the proliferation assay): 9530 nM | IC50 (MON cells [9]): 358 nM | IC50 (DAOY cells [11]): 340 nM
